Source: PubChem BioAssay (NCI)
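Results reflect a 48-hour exposure of cells in 96-well plates to compound at five concentrations. GI50 = concentration required for 50% inhibition of growth. TGI: total growth inhibition.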

What was measured:
Test in all cases: NCI-60 cell line screen, 48 h
A498 renal = tested on: A498 renal
BT-549 breast = tested on: BT-549 breast
CAKI-1 renal = tested on: CAKI-1 renal
HCT-116 colon = tested on: HCT-116 colon
IGROV1 ovarian = tested on: IGROV1 ovarian
NCI-H226 lung = tested on: NCI-H226 lung
OVCAR-5 ovarian = tested on: OVCAR-5 ovarian
SF-539 CNS = tested on: SF-539 CNS
SNB-75 CNS = tested on: SNB-75 CNS
UACC-257 melanoma = tested on: UACC-257 melanoma

Structure (SMILES)	TGI (A498 renal) [µM]	TGI (BT-549 breast) [µM]	TGI (CAKI-1 renal) [µM]	TGI (HCT-116 colon) [µM]	TGI (IGROV1 ovarian) [µM]	TGI (NCI-H226 lung) [µM]	TGI (OVCAR-5 ovarian) [µM]	TGI (SF-539 CNS) [µM]	TGI (SNB-75 CNS) [µM]	TGI (UACC-257 melanoma) [µM]	GI50 (BT-549 breast) [µM]	GI50 (CAKI-1 renal) [µM]	GI50 (HCT-116 colon) [µM]	GI50 (IGROV1 ovarian) [µM]	GI50 (NCI-H226 lung) [µM]	GI50 (OVCAR-5 ovarian) [µM]	GI50 (SF-539 CNS) [µM]	GI50 (SNB-75 CNS) [µM]	GI50 (UACC-257 melanoma) [µM]	GI50 (A498 renal) [µM]
CC1(C)CC[C@]2(C(=O)O)CC[C@]3(C)C(=CC[C@@H]4[C@@]5(C)C[C@H](O)[C@H](O)[C@@](C)(C(=O)O)[C@@H]5CC[C@]43C)[C@@H]2C1	> 100	> 100	> 100	> 100	> 100	> 100	> 100	> 100	> 100	> 100										
CCCCCCCCCCCCSC1=C(Cl)C(=O)C(OC)=C(OC)C1=O	14.1	9.35	34.2	11.9	20.7	28.3	11.7	11.9	10.7	27.6	1.2	4.79	0.508	6.99	5.9	3.49	2.81	1.21	3.62	
c1ccc2cc(NCNc3ccc4ccccc4c3)ccc2c1	45.6	53.2	42.7	43.4	35	46.5	51.5	71.3	30.9	20.9										
CCOC(=O)Nc1nc2ccc(Br)cc2s1	> 50	> 50	> 50	> 50	> 50	> 50	> 50	> 50	> 50	> 50	> 50	> 50	> 50	> 50	> 50	> 50	> 50	> 50	> 50	> 50
Cc1cc(Nc2ncc3c(n2)N(C)C(=O)N(c2cc(NC(=O)c4cccc(C(F)(F)F)c4)ccc2C)C3)n(C)n1	0.0458	0.321	0.0709	27.1	0.0524	> 100		0.68	0.0699	0.125	0.0628	0.0182	0.0333	< 0.01	0.0387	0.0539	0.0621	0.0217	0.0197	0.0158
Cc1ccc(-c2cc3c4c(nc5ccccc53)C(=O)c3cccnc3-c4n2)cc1	32.7	41	> 100	22.8	55.4	> 100	60.9	26.7	> 53.6	20.8	17.4	29.7	7.65	10.7	56.4	23	6.68	13.1	6.01	11.8
CN1CCC2(CC1)NC(=O)c1c(c3ccc(Cl)c(Cl)c3n1C)C2C#N (stereo not given)	24.1	12.5	21.3	9.17	7.21	30.7	24.3	17.9	18.8	4.71	2.62	4.31	3.11	2.31	6.52	8.67	5.51	4.46	2.12	9.05
C[C@]12CC[C@@H]3c4cc(OC(F)F)c(OS(N)(=O)=O)cc4CC[C@H]3[C@@H]1CC[C@@H]2OS(N)(=O)=O	4.02	20.4	19.8	13.9	28.7	33.2	26.5	3.84	2.15	24.8	3.19	1.46	0.997	1.88	4.24	4.73	0.781	0.463	5.87	0.934
CCN1C(=O)N(CC)C2C1NN=c1s/c(=C\c3ccco3)c(=O)n12 (stereo not given)		> 100	> 89.7	> 100	> 100	> 100	> 100	6.48		> 100	0.791	0.468	0.436	1.16		1.31	0.402	0.239	> 100	0.39
COc1ccc2c(c1)CC[C@@H]1[C@@H]2CC[C@]2(C)c3c(cc(C(=O)O)c4sccc34)C[C@@H]12	34.9	38.8	63.7	24.8	> 100	55.4	50.1	35.1	47.9	61.4	18.7	33.8	11.2	29.7	23	26	16.7	20.8	26.7	15.6
O=C(NC(=O)c1ccccc1[N+](=O)[O-])Nc1ccc(Oc2ncc(Cl)cn2)c([N+](=O)[O-])c1	30.3	> 100	> 100	> 100	> 71.8	1.07	> 100	8.38	0.313	> 100										
COc1cc2c(cc1Cc1cccc(Cl)c1F)c(=O)c(C(=O)O)cn2[C@@H](CO)C(C)C	14.2	8.66	12.7	11.7	5.61	23.6	15.4	10.7	13.7	14	2.09	3.28	2.99	2.42	5.68	4.28	3.39	2.53	3.23	2.26
Cc1cc(O)cc(C)c1/C=C/c1cncc(C(N)=O)c1	17.4	> 25	> 25	> 25	> 25	> 25	> 25	16.5	> 18.2	> 25	4.51	4.24	1.34	2.18	> 15.6	12.1	1.87	2.81	3.37	1.65
